Values after ≈ are worked out from the molar mass of the structure shown. Where two headings read alike, the source gives them in different places.
Assays:
colon cell line (H-29) = settings: cited from earlier work
lung cell line (A-549) = settings: cited from earlier work
[1] = test system: yellow fever mosquito Aedes aegyptii; settings: cited from earlier work
[2] = test system: newly hatched variegated cutworm (peridroma saucia, Noctuidae); assay: Chronic larval growth bioassay; format: in vivo; settings: 10 days at 26° C.; for Larval growth, % of control / Larval survival, % of control / activity at 20 ppm: 20 ppm, newly hatched larvae (n=20); for activity at 20 ppm: Peridroma saucia, 240 h
Description: Chromic larveal growth bioassay % of control given in parenthesis. […] These bioassays were carried out according to the procedure described earlier (M. B. Isman, O. Koul, A. Luczynski and J. Kaminski, J. Agric. Food Chem. 38, 1406 (1990). These tests were performed by Prof. M. B. Isman and colleagues at University of British Columbia, Vancouver, Canada.

L-5178 Y = settings: in vitro cytotoxic activity against L-5178 Y; cited from earlier work
southern corn rootworm = settings: in vivo; cited from earlier work
two sported spider mite = settings: in vivo; cited from earlier work
cotton aphid = settings: in vivo; cited from earlier work
[3] = test system: oriental armyworm (Mythimna separata WLK) larvae; assay: Insect antifeedant bioassay on sorghum leaf discs; format: in vivo; settings: for mortality: first and third instar larvae, concentration of 0.05% (MeOH) at 27°, untreated control 7% mortality; for Damage rating: 0.05% in methanol, visual scale 1 to 9 (1=<10%, 9=>80% leaf area consumed)
Description: The sample solutions (10 μl of a 0.05% solution) were applied evenly to the lower surface of leaf discs (5 cm^2) cut from sorghum hybrid variety CSH5 and the discs were allowed to dry on filter papers. After drying the leaf, discs were offered to 10 first instar M. separata larvae in plastic cups or to one third instar larva in 9-cm (diameter) plastic petric dishes. All larvae were starved for 2 h before the test and the leaf and the leaf discs were kept on moisture filter papers to keep them turgid. The larvae were confined to leaf discs for 24 h and during the period the larvae scratched or consumed >80% of the leaf disc area in the untreated controls. The leaf discs were rated visually for the extent of feeding on a scale upto 1 to 9 (1=<10%, 2=11 to 20%, 3=21 to 30%, 4=31 to 40%, 5=41 to 7=61 to 70%, 8=71 to 80%, 9=>80% leaf area scratched consumed). The larvae were then stirred for 12 h and weighed. Isosquamocin was evaluated by this procedure and the results have shown that it drastically. The feeding of the leaves of sorghum hybrid variety CSH 5 at a concentration of 0.05% in methanol) in comparison with control (methanol) against the first instar and third instar larvae of oriental armyworm (Mythimna separata WLK). It is very toxic to first instar larvae causing high larval mortality and the results are presented below: […]

[4] = test system: Southern Corn rootworm (SCRW); assay: Evaluation screen (EVAL) for insecticidal activity; format: in vivo; settings: 250 ppm
[5] = test system: Two spotted spidermite (TSSM); assay: Evaluation screen (EVAL) for insecticidal activity; format: in vivo; settings: 250 ppm
Text: (§1) Two spotted spidermite, green peach aphid (GPA) and corn plant hopper (GPH) when they were subjected evaluation screen (Eval) and evaluation screen delayed toxicity test EVDT for the insecticidal activity and results are summarized below: […]

[6] = test system: Two spotted spidermite (TSSM); assay: Evaluation screen delayed toxicity test (EVADT); format: in vivo; settings: 250 ppm
Text: as §1

corn plant hopper (CP-H) = assay: Evaluation screen delayed toxicity test (EVADT); format: in vivo; settings: 250 ppm
Text: as §1

green peach aphid (GPA) = assay: Evaluation screen delayed toxicity test (EVADT); format: in vivo; settings: 250 ppm
Text: as §1

[7] = test system: certain human tumor cell lines; settings: values as low as; cited from earlier work
[8] = Solubility of the waxy substance; format: physicochemical
[9] = First instar larvae, 0.05% in methanol on leaf discs, 24 h

bullatanocin/squamostatin-C/Annonin-V/Cherimolin-II
times more toxic than adriamycin (colon cell line (H-29)): about 10,000 times | times more toxic than adriamycin (lung cell line (A-549)): about 10,000 times

CCCCCCCCCCCCC(O)C1CCC(C(O)CCCCC(O)CCCCCC(O)CC2=CC(C)OC2=O)O1 (stereo not drawn) [annonacin A, reference compound]
LC 50 [1]: 10.8 mg/lit^−1

CCCCCC[C@@H](O)CCC[C@H](O)[C@@H]1CC[C@@H]([C@H](O)CC[C@@H](O)[C@@H]2CC[C@@H](CCCCCCCCCC3=C[C@@H](C)OC3=O)O2)O1 [squamostatin-A]
Larval growth, % of control [2]: 138% | Larval survival, % of control [2]: 100% | IC50 (L-5178 Y): 0.5 µg/mL (≈ 0.783 µM)

bullatacin
insecticidal concentration, southern corn rootworm (southern corn rootworm): 24 ppm | insecticidal concentration, two sported spider mite (two sported spider mite): 10 ppm | insecticidal concentration, cotton aphid (cotton aphid): 1 ppm

CCCCCCCCCC[C@H](O)[C@H]1CC[C@H]([C@H]2CC[C@H]([C@H](O)CCCCCCCCCC[C@@H](O)CC3=C[C@H](C)OC3=O)O2)O1 [squamocin-G]
Larval growth, % of control [2]: 34% | Larval survival, % of control [2]: 45% | EC 50 ([2]; chronic larval growth bioassay): 5.65 ppm | LC 50 ([2]; chronic larval growth bioassay): 12 ppm | mortality [3]: 70% | SCRW [4]: 100 | TSSM [5]: L8 (Less than 80% mortality) | TSSM [6]: L9 (Less than 90% reduction in population) | CP-H (corn plant hopper (CP-H)): G8 (Greater than 80% reduction in population) | GPA (green peach aphid (GPA)): L8 (Less than 80% mortality)

CCCCCCCCCC[C@H](O)[C@H]1CC[C@H]([C@H](O)CC[C@H](O)[C@@H]2CC[C@@H](CCCCCCC[C@@H](O)CC3=C[C@H](C)OC3=O)O2)O1 [bullatalicin, bullatalicin/squamostatin-B]
activity at 20 ppm ([2]; read-out: Larval growth, % of control): 135% | activity at 20 ppm ([2]; read-out: Larval survival, % of control): 100% | ED50 [7]: ≥ 10^−7 ug/ml | times more toxic than adriamycin (colon cell line (H-29)): about 10,000 times | times more toxic than adriamycin (lung cell line (A-549)): about 10,000 times | LC 50 [1]: 9 mg/lit^−1

isosquamocin
Larval growth, % of control [2]: 20% | Larval survival, % of control [2]: 55% | Larval Survival (%) [3, 9]: 10.4% | Mean larval mass [3, 9]: 0.2 mg | Damage rating ([3]; First instar larvae): 1.3 | Mean larval mass ([3]; Third instar larvae, 0.05% in methanol on leaf discs, 24 h): 15.7 mg | Damage rating ([3]; Third instar larvae): 1.0 | mortality [3]: 70% | SCRW [4]: 100 | TSSM [5]: L8 (Less than 80% mortality) | TSSM [6]: L9 (Less than 90% reduction in population) | CP-H (corn plant hopper (CP-H)): G8 (Greater than 80% reduction in population) | Solubility in ether, chloroform, dichloromethane, acetone, methanol and ethyl acetate [8]: readily soluble | Solubility in petroleum ether/hexane and water [8]: insoluble or very sparingly soluble
